ChEMBL document CHEMBL1201862, “PubChem BioAssay data set” (2004)
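Growth conditions: 96-well plates. Treatment: test compound, 48 hours, 5 concentrations. Analysis: linear interpolation between bracketing concentrations; unreached endpoints set to highest concentration. GI50: concentration for 50% inhibition of growth.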 Calls of active or inactive are those of the source. No stated cut-off is given here; in the data, active = GI50 up to about 1.1 µM and inactive = higher.

What was measured:
Experiment in all cases: DTP human tumour cell line panel, 48 h
A549 = tested on: A549
SK-MEL-2 = tested on: SK-MEL-2
RPMI-8226 = tested on: RPMI-8226
RXF 393 = tested on: RXF 393
OVCAR-5 = tested on: OVCAR-5
IGROV-1 = tested on: IGROV-1
UACC-62 = tested on: UACC-62
SF-268 = tested on: SF-268
NCI/ADR-RES = tested on: NCI/ADR-RES
COLO 205 = tested on: COLO 205
ACHN = tested on: ACHN
NCI-H23 = tested on: NCI-H23
MDA-MB-435 = tested on: MDA-MB-435
SK-OV-3 = tested on: SK-OV-3
U-251 = tested on: U-251
SK-MEL-28 = tested on: SK-MEL-28
SW-620 = tested on: SW-620
NCI-H460 = tested on: NCI-H460
OVCAR-4 = tested on: OVCAR-4
M14 = tested on: M14
MCF7 = tested on: MCF7
CAKI-1 = tested on: CAKI-1
Malme-3M = tested on: Malme-3M
T47D = tested on: T47D
HOP-62 = tested on: HOP-62
SK-MEL-5 = tested on: SK-MEL-5
SNB-75 = tested on: SNB-75
SR = tested on: SR
K562 = tested on: K562
786-0 = tested on: 786-0
NCI-H522 = tested on: NCI-H522
TK-10 = tested on: TK-10
LOX IMVI = tested on: LOX IMVI
NCI-H226 = tested on: NCI-H226
A498 = tested on: A498
DU-145 = tested on: DU-145
HCC 2998 = tested on: HCC 2998
MDA-MB-231 = tested on: MDA-MB-231
UACC-257 = tested on: UACC-257
SN12C = tested on: SN12C
UO-31 = tested on: UO-31
SF-295 = tested on: SF-295
HCT-15 = tested on: HCT-15
KM12 = tested on: KM12
HT-29 = tested on: HT-29
HL-60 = tested on: HL-60
OVCAR-3 = tested on: OVCAR-3
HOP-92 = tested on: HOP-92
SF-539 = tested on: SF-539
MDA-N = tested on: MDA-N
SNB-19 = tested on: SNB-19
PC-3 = tested on: PC-3
HCT-116 = tested on: HCT-116
Hs-578T = tested on: Hs-578T
EKVX = tested on: EKVX
CCRF-CEM = tested on: CCRF-CEM
MOLT-4 = tested on: MOLT-4

## O=P(O)(Cc1ccccc1)OCC1(O)OCC(O)C(O)C1O (centres undefined)
A549
  GI50: > 10 µM (inactive)
SK-MEL-2
  GI50: > 10 µM (inactive)
RPMI-8226
  GI50: > 10 µM (inactive)
RXF 393
  GI50: > 10 µM (inactive)
OVCAR-5
  GI50: > 10 µM (inactive)
IGROV-1
  GI50: > 10 µM (inactive)
UACC-62
  GI50: > 10 µM (inactive)
SF-268
  GI50: > 10 µM (inactive)
NCI/ADR-RES
  GI50: > 10 µM (inactive)
COLO 205
  GI50: > 10 µM (inactive)
ACHN
  GI50: > 10 µM (inactive)
NCI-H23
  GI50: > 10 µM (inactive)
MDA-MB-435
  GI50: > 10 µM (inactive)
SK-OV-3
  GI50: > 10 µM (inactive)
U-251
  GI50: > 10 µM (inactive)
SK-MEL-28
  GI50: > 10 µM (inactive)
SW-620
  GI50: > 10 µM (inactive)
NCI-H460
  GI50: > 10 µM (inactive)
OVCAR-4
  GI50: > 10 µM (inactive)
M14
  GI50: > 10 µM (inactive)
MCF7
  GI50: > 10 µM (inactive)
CAKI-1
  GI50: > 10 µM (inactive)
Malme-3M
  GI50: > 10 µM (inactive)
T47D
  GI50: > 10 µM (inactive)
HOP-62
  GI50: > 10 µM (inactive)
SK-MEL-5
  GI50: > 10 µM (inactive)
SNB-75
  GI50: > 10 µM (inactive)
SR
  GI50: > 10 µM (inactive)
K562
  GI50: > 10 µM (inactive)
786-0
  GI50: > 10 µM (inactive)

## C[N+](C)(C)CCOP(=O)(O)OP(=O)([O-])OCC1CCC(n2ccc(N)nc2=O)O1 (centres undefined)
NCI-H522
  GI50: > 100 µM (inactive)
A549
  GI50: > 100 µM (inactive)
RPMI-8226
  GI50: > 100 µM (inactive)
TK-10
  GI50: > 100 µM (inactive)
OVCAR-5
  GI50: > 100 µM (inactive)
LOX IMVI
  GI50: > 100 µM (inactive)
NCI-H226
  GI50: > 100 µM (inactive)
UACC-62
  GI50: > 100 µM (inactive)
A498
  GI50: > 80.9 µM (inactive)
DU-145
  GI50: > 100 µM (inactive)
SF-268
  GI50: > 100 µM (inactive)
ACHN
  GI50: > 100 µM (inactive)
HCC 2998
  GI50: > 100 µM (inactive)
NCI-H23
  GI50: > 100 µM (inactive)
MDA-MB-435
  GI50: > 100 µM (inactive)
MDA-MB-231
  GI50: 77.6 µM (inactive)
UACC-257
  GI50: > 100 µM (inactive)
SN12C
  GI50: > 100 µM (inactive)
SK-MEL-28
  GI50: > 100 µM (inactive)
SW-620
  GI50: > 100 µM (inactive)
NCI-H460
  GI50: > 100 µM (inactive)
OVCAR-4
  GI50: > 100 µM (inactive)
M14
  GI50: > 100 µM (inactive)
UO-31
  GI50: > 100 µM (inactive)
SF-295
  GI50: > 100 µM (inactive)
CAKI-1
  GI50: > 100 µM (inactive)
Malme-3M
  GI50: > 100 µM (inactive)
HCT-15
  GI50: > 100 µM
HOP-62
  GI50: > 100 µM (inactive)
SK-MEL-5
  GI50: > 100 µM (inactive)
SNB-75
  GI50: > 100 µM (inactive)
SR
  GI50: > 100 µM (inactive)
K562
  GI50: > 100 µM (inactive)
KM12
  GI50: > 100 µM (inactive)
HT-29
  GI50: > 100 µM (inactive)
HL-60
  GI50: > 100 µM (inactive)
OVCAR-3
  GI50: > 100 µM (inactive)
HOP-92
  GI50: > 100 µM (inactive)
SF-539
  GI50: > 100 µM (inactive)

## Cc1cccc(Nc2cn(CCOc3ccccc3)c(=O)[nH]c2=O)c1
A549
  GI50: 22.7 µM (inactive)
RPMI-8226
  GI50: 34 µM (inactive)
RXF 393
  GI50: 34.8 µM (inactive)
OVCAR-5
  GI50: 19.4 µM (inactive)
LOX IMVI
  GI50: 11.9 µM (inactive)
IGROV-1
  GI50: 16.7 µM (inactive)
UACC-62
  GI50: 46.6 µM (inactive)
A498
  GI50: > 100 µM (inactive)
DU-145
  GI50: 28.5 µM (inactive)
MDA-N
  GI50: 32.4 µM (inactive)
SNB-19
  GI50: 97.1 µM (inactive)
SF-268
  GI50: 30 µM (inactive)
NCI/ADR-RES
  GI50: 1.73 µM (inactive)
COLO 205
  GI50: 18.8 µM (inactive)
ACHN
  GI50: 33.2 µM (inactive)
HCC 2998
  GI50: 24.8 µM (inactive)
NCI-H23
  GI50: 31 µM (inactive)
MDA-MB-435
  GI50: 29.5 µM (inactive)
U-251
  GI50: 33.7 µM (inactive)
UACC-257
  GI50: 43.7 µM (inactive)
SN12C
  GI50: 24.6 µM (inactive)
SK-MEL-28
  GI50: 29.5 µM (inactive)
PC-3
  GI50: 23.4 µM (inactive)
HCT-116
  GI50: 27.5 µM (inactive)
SW-620
  GI50: > 100 µM (inactive)
Hs-578T
  GI50: 6.41 µM (inactive)
NCI-H460
  GI50: 32.7 µM (inactive)
OVCAR-4
  GI50: 69.5 µM (inactive)
EKVX
  GI50: 11.3 µM (inactive)
M14
  GI50: 47.2 µM (inactive)
CCRF-CEM
  GI50: 52.6 µM (inactive)
UO-31
  GI50: 21.4 µM (inactive)
SF-295
  GI50: 49.9 µM (inactive)
MCF7
  GI50: 35.9 µM (inactive)
CAKI-1
  GI50: 41.2 µM (inactive)
MOLT-4
  GI50: 36.9 µM (inactive)
HCT-15
  GI50: 49.9 µM
HOP-62
  GI50: 29.8 µM (inactive)
SK-MEL-5
  GI50: 25.8 µM (inactive)
SR
  GI50: > 100 µM (inactive)
K562
  GI50: 58.6 µM (inactive)
KM12
  GI50: 31.3 µM (inactive)
786-0
  GI50: 34.2 µM (inactive)
OVCAR-3
  GI50: 18.7 µM (inactive)
HOP-92
  GI50: 35.6 µM (inactive)
